Measurements: patent publication US20240335407A1, “PHARMACEUTICAL COMPOSITION AND USE THEREOF” (NEURODAWN PHARMACEUTICAL CO., LTD., priority 2021, published 2024)

Columns and labels:
[1] = test system: neuropathic pain induced by separate L5 spinal nerve ligation (SNL); test: Mechanical pain threshold (MWT) in the L5 spinal nerve ligation (SNL) model of neuropathic pain, with synergy analysis (Jin Zhengjun q, CompuSyn CI); assay type: in vivo, Sprague-Dawley (SD) rats; conditions: Example 1, Mean ± SEM
Method: In this experiment, the model of neuropathic pain induced by separate L5 spinal nerve ligation (SNL) was adopted. Animals were anesthetized with 7% chloral hydrate (dosage: 420 mg/kg, intraperitoneal injection), and the limbs of rats were fixed in a prone position. The rats were placed under dissecting microscope with the back hair-cut off, then wiped and disinfected with alcohol. An incision about 2-3 cm long was cut on the right side of the dorsal spine, and the two spinal nerves L4 and L5 were exposed, the spinal nerve L5 was lightly ligated with 6-0 braided line to avoid damage to the contiguous spinal nerves. Double-layer suture was performed on the back incisions of the experimental animals, and disinfected with iodophor, then the experimental animals were gently put into a feeding cage, allowed to free access to movement, eating and drinking.
Mechanical withdrawal threshold (MWT) of all experimental animals was measured by mechanical automatic stimulated needle. The experimental animals were placed in a transparent plexiglass box with iron gauze at the bottom, and after acclimatization for 30 minutes, the vola of the hind limbs of the experimental animals were stimulated with a stimulated needle at a uniform speed, and the reaction threshold when rats rapidly retracted or shook their feet was recorded (as MWT), which was the mechanical pain threshold of the animals.
The basic mechanical pain threshold of each experimental animal was measured for 2 days […], and the basic mechanical pain threshold of experimental animals was the average of two values. […]
The L5-SNL model was prepared by selecting SD rats with appropriate weight, and the measurement of postoperative mechanical pain threshold was started at least 7 days after modeling. […] The experimental model animals were administered corresponding drugs or solvents, and the mechanical pain threshold of animals was measured at 0.5 h and 3 h after administration. […]

[2] = test system: neuropathic pain induced by separate L5 spinal nerve ligation (SNL); test: as above; assay type: in vivo, Sprague-Dawley (SD) rats; conditions: Mean ± SEM
[3] = Example 1, 0.5 mg/kg intraperitoneal
[4] = Example 2, 1 mg/kg intraperitoneal
[5] = Example 2, 20 mg/kg intraperitoneal
[6] = Example 3, 3 mg/kg intraperitoneal
[7] = Example 3, 18 mg/kg intraperitoneal
[8] = Example 3, 30 mg/kg intraperitoneal
[9] = Example 4, 3 mg/kg intraperitoneal
[10] = Example 4, 9 mg/kg intraperitoneal
[11] = Example 4, 18 mg/kg intraperitoneal
[12] = Example 5, 3 mg/kg intraperitoneal
[13] = Example 5, 6 mg/kg intraperitoneal
[14] = Example 5, 9 mg/kg intraperitoneal
[15] = Example 6, 6 mg/kg intraperitoneal
[16] = Example 2, 10 mg/kg intraperitoneal
[17] = Example 3, 12 mg/kg intraperitoneal
[18] = Example 4, 6 mg/kg intraperitoneal
[19] = Example 4, 12 mg/kg intraperitoneal
[20] = Example 6, 7.5 mg/kg intraperitoneal
[21] = Example 6, 10 mg/kg intraperitoneal

## CC(C)C[C@H](CN)CC(=O)O [pregabalin, (S)-3-aminomethyl-5-methylhexanoic acid]
[1]; 25 mg/kg intraperitoneal
  pain threshold at 0.5 h after administration: 17.41 ± 0.58 g
[2]; [3]
  pain threshold at 0.5 h after administration: 15.48 ± 1.27 g
  pain threshold at 3 h after administration: 15.54 ± 1.15 g
[2]; Example 1, 25 mg/kg intraperitoneal
  pain threshold at 3 h after administration: 24.65 ± 0.34 g
[2]; [4]
  pain threshold at 0.5 h after administration: 15.57 ± 1.04 g
  pain threshold at 3 h after administration: 15.68 ± 1.32 g
[2]; [5]
  pain threshold at 0.5 h after administration: 17.04 ± 0.54 g
  pain threshold at 3 h after administration: 24.76 ± 0.73 g
[2]; [6]
  pain threshold at 0.5 h after administration: 15.19 ± 1.31 g
  pain threshold at 3 h after administration: 16.75 ± 1.14 g
[2]; [7]
  pain threshold at 0.5 h after administration: 16.36 ± 1.35 g
  pain threshold at 3 h after administration: 23.92 ± 1.30 g
[2]; [8]
  pain threshold at 0.5 h after administration: 18.05 ± 0.73 g
  pain threshold at 3 h after administration: 26.13 ± 0.91 g
[2]; [9]
  pain threshold at 0.5 h after administration: 15.24 ± 0.95 g
  pain threshold at 3 h after administration: 16.96 ± 1.22 g
[2]; [10]
  pain threshold at 0.5 h after administration: 15.03 ± 1.21 g
  pain threshold at 3 h after administration: 21.13 ± 1.13 g
[2]; [11]
  pain threshold at 0.5 h after administration: 16.26 ± 0.74 g
  pain threshold at 3 h after administration: 24.54 ± 0.56 g
[2]; [12]
  pain threshold at 0.5 h after administration: 15.35 ± 0.57 g
  pain threshold at 3 h after administration: 16.73 ± 1.15 g
[2]; [13]
  pain threshold at 0.5 h after administration: 15.24 ± 1.15 g
  pain threshold at 3 h after administration: 19.15 ± 1.21 g
[2]; [14]
  pain threshold at 0.5 h after administration: 15.78 ± 0.83 g
  pain threshold at 3 h after administration: 21.66 ± 0.79 g
[2]; [15]
  pain threshold at 0.5 h after administration: 17.39 ± 1.26 g
  pain threshold at 3 h after administration: 19.62 g
  pain threshold at 6 h after administration: 19.49 g
  pain threshold at 8 h after administration: 19.26 g
[2]; Example 6, 20 mg/kg intraperitoneal
  pain threshold at 0.5 h after administration: 17.53 ± 1.33 g
[2]; Example 6, 30 mg/kg intraperitoneal
  pain threshold at 0.5 h after administration: 18.65 ± 1.24 g

## Nc1nc2ccc(OC(F)(F)F)cc2s1 [riluzole]
[1]; 0.5 mg/kg intraperitoneal, 3 h
  pain threshold at 3 h after administration: 14.04 ± 0.91 g
[1]; 10 mg/kg intraperitoneal
  pain threshold at 0.5 h after administration: 21.56 ± 1.24 g
[2]; [3]
  pain threshold at 0.5 h after administration: 14.25 ± 0.90 g
[2]; Example 1, 10 mg/kg intraperitoneal
  pain threshold at 3 h after administration: 19.87 ± 0.92 g
[2]; [4]
  pain threshold at 0.5 h after administration: 14.08 ± 0.92 g
  pain threshold at 3 h after administration: 14.01 ± 0.99 g
[2]; [16]
  pain threshold at 0.5 h after administration: 21.79 ± 1.33 g
  pain threshold at 3 h after administration: 20.63 ± 1.12 g
[2]; [6]
  pain threshold at 0.5 h after administration: 15.48 ± 0.92 g
  pain threshold at 3 h after administration: 15.16 ± 1.31 g
[2]; [17]
  pain threshold at 0.5 h after administration: 22.54 ± 1.33 g
  pain threshold at 3 h after administration: 21.69 ± 1.12 g
[2]; [9]
  pain threshold at 0.5 h after administration: 15.43 ± 0.69 g
  pain threshold at 3 h after administration: 15.03 ± 0.79 g
[2]; [18]
  pain threshold at 0.5 h after administration: 18.47 ± 0.37 g
  pain threshold at 3 h after administration: 17.47 ± 0.73 g
[2]; [19]
  pain threshold at 0.5 h after administration: 22.54 ± 1.33 g
  pain threshold at 3 h after administration: 21.69 ± 1.12 g
[2]; [12]
  pain threshold at 0.5 h after administration: 15.35 ± 0.58 g
  pain threshold at 3 h after administration: 14.98 ± 0.84 g
[2]; [13]
  pain threshold at 0.5 h after administration: 18.21 ± 0.47 g
  pain threshold at 3 h after administration: 17.45 ± 0.46 g
[2]; [15]
  pain threshold at 0.5 h after administration: 22.96 g
  pain threshold at 3 h after administration: 15.74 ± 0.93 g
  pain threshold at 6 h after administration: 15.08 ± 0.77 g
  pain threshold at 8 h after administration: 14.95 ± 0.81 g
[2]; [20]
  pain threshold at 3 h after administration: 16.44 ± 1.07 g
  pain threshold at 6 h after administration: 16.52 ± 1.06 g
  pain threshold at 8 h after administration: 15.49 ± 1.18 g
[2]; [21]
  pain threshold at 3 h after administration: 17.89 ± 1.16 g
  pain threshold at 6 h after administration: 17.46 ± 1.23 g
  pain threshold at 8 h after administration: 16.93 ± 1.15 g
